In paper PMC9578396, “Intrinsic Antibacterial Activity of Xeruborbactam In Vitro: Assessing Spectrum and Mode of Action” (Antimicrobial Agents and Chemotherapy, 2022):
Values after ≈ are worked out from the molar mass of the structure shown. Read-outs that look alike come from different tables or passages of the source.

Legend:
[1] = test system: PBP2; parameters: method as in PMID 18250190; details: value in parentheses; E. coli MC1400; cited from earlier work
[2] = target: T1, PBP2 (Acinetobacter baumannii, UniProt D0C8Z9); parameters: method as in earlier work; details: value in parentheses; A. baumannii ATCC 19606; cited from earlier work
T1 construct: Five microliters of total bacterial membrane preparation was mixed with 5 μL of a test compound; endogenous in cells
T1 sequence (D0C8Z9 1-672): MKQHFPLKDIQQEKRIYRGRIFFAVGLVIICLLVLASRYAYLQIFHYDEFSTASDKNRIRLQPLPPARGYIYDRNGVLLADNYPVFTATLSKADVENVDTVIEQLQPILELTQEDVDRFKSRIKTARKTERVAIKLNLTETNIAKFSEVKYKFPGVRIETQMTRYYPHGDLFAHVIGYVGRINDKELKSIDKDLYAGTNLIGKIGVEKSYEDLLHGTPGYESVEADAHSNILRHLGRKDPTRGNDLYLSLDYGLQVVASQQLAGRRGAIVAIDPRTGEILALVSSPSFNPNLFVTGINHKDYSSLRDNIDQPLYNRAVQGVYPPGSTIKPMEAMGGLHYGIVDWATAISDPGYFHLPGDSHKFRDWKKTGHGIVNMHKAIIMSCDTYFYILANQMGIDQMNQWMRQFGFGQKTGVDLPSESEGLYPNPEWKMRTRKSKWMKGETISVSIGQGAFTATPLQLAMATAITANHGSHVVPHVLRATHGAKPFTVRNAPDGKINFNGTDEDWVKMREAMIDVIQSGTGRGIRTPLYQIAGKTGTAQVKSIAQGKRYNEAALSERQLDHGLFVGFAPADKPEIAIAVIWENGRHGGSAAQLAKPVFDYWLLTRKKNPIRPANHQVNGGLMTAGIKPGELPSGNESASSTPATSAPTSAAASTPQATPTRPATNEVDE

[3] = target: T2, PBP1b (Escherichia coli, UniProt P02919); parameters: method as in PMID 18250190; details: read-out: IC50, PBP1b; value in parentheses; E. coli MC1400; cited from earlier work
T2 construct: Five microliters of total bacterial membrane preparation was mixed with 5 μL of a test compound; endogenous in cells; host or cells: Escherichia coli ECM5497 (MG1655), total membrane preparation
T2 sequence (P02919 whole entry): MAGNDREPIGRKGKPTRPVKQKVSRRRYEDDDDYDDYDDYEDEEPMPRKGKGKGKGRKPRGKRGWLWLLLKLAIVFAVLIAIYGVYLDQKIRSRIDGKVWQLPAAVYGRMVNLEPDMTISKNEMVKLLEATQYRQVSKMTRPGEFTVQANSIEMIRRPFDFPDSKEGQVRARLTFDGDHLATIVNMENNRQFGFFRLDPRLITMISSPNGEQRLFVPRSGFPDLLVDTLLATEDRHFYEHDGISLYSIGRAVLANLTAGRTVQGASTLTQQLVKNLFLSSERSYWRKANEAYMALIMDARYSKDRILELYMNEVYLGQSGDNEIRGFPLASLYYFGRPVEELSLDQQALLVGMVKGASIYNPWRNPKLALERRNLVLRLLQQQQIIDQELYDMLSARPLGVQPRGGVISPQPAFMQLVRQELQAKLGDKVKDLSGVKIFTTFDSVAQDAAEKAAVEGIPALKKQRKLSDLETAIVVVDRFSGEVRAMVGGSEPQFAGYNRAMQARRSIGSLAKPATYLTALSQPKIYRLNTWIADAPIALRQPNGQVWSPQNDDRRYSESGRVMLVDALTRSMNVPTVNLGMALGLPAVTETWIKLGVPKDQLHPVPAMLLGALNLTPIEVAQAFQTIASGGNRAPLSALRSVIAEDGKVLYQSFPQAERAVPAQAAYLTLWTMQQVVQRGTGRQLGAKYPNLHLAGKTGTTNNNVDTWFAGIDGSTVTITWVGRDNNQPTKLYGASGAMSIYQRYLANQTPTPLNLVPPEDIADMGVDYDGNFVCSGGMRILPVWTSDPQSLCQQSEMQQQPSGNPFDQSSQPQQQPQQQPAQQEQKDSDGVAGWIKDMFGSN

[4] = target: T3, PBP1a (Escherichia coli, UniProt P02918); parameters: method as in PMID 18250190; details: read-out: IC50, PBP1a; value in parentheses; E. coli MC1400; cited from earlier work
T3 construct: Five microliters of total bacterial membrane preparation was mixed with 5 μL of a test compound; endogenous in cells; host or cells: Escherichia coli ECM5497 (MG1655), total membrane preparation
T3 sequence (P02918 whole entry): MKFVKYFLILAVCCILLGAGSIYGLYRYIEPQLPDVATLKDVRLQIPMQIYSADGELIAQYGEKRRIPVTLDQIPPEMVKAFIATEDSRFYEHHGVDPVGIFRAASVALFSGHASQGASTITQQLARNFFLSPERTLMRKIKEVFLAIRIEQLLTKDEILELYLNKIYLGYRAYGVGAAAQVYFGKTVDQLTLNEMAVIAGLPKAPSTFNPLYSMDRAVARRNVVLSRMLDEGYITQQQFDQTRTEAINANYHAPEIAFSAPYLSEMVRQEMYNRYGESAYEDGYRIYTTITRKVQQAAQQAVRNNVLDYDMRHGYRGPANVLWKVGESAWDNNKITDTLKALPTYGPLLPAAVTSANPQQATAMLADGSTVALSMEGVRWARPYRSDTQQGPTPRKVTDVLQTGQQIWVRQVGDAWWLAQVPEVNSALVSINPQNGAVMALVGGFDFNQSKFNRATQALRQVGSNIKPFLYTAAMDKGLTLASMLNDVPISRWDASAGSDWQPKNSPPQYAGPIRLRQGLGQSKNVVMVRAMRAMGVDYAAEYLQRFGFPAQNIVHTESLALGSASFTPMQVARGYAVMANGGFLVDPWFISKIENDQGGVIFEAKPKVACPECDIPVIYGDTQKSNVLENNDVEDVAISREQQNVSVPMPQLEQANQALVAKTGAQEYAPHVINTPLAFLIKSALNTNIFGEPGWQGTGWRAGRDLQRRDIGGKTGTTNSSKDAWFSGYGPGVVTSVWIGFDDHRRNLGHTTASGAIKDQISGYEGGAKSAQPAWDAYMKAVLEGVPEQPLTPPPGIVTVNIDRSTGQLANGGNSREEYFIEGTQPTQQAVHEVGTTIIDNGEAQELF

[5] = target: T4, PBP3 (Escherichia coli, UniProt P0AD68); assay: Gel-based Bocillin FL competition PBP binding assay
T4 construct: endogenous in cells; host or cells: Escherichia coli ECM5497 (MG1655), total membrane preparation
T4 sequence (P0AD68 whole entry): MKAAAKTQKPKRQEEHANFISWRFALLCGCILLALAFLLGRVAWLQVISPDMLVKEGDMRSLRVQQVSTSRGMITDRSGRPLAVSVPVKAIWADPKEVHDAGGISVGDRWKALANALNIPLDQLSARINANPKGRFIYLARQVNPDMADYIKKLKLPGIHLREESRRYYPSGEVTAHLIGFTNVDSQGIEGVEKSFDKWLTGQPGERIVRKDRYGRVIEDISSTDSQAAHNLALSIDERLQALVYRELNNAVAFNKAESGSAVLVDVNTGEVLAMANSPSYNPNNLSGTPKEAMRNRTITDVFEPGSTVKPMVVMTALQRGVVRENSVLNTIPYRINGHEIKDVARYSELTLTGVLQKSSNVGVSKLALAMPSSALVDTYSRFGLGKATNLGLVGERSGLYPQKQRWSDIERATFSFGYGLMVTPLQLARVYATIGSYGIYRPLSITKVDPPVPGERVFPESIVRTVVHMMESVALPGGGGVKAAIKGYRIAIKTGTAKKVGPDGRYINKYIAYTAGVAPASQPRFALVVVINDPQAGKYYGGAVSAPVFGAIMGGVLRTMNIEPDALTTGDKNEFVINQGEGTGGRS
Method: Ten milliliters of overnight bacterial culture was inoculated in 1 L of LB medium and grown to an OD600 of 0.7 to 0.9. The cell pellet was washed once with 50 mL of solution containing 100 mM Na-phosphate at pH 7.0 and 100 mM NaCl and resuspended in 10 mL of the same buffer with one tablet of EDTA-free mini-protease inhibitor and 10 mg of lysozyme. Cell suspensions were incubated for 45 min at 37°C, and then 200 μL of DNase I was added along with MgSO4 (to a final concentration of 10 mM), followed by three cycles of freeze-thawing (10 min and 20 min, respectively). Four cycles of sonication at maximum power were performed next, each cycle lasting for 30 s with 1 min on ice between cycles. The cell suspension was centrifuged at 12,000 × g for 10 min at 4°C. The supernatant was collected and centrifuged at 100,000 × g for 45 min at 4°C. The pellet was washed three times with 10 mL of 100 mM Na-phosphate, pH 7.0, by resuspension and subsequent centrifugation at 100,000 × g for 10 min at 4°C. The pellet was finally resuspended in 1.5 mL of 100 mM Na-phosphate, pH 7.0, and passed several times through a Dounce homogenizer (tight pestle). […]
Five microliters of total bacterial membrane preparation was mixed with 5 μL of a test compound at a desired concentration in 100 mM Na-phosphate buffer, pH 7.0. […] IC50 values were calculated with Prism software (GraphPad).

[6] = test system: Other Enterobacterales; assay: Broth microdilution MIC (CLSI), other Enterobacterales; type: cell-based; details: 18 isolates
Text: (§1) Bacterial isolates were subjected to broth microdilution susceptibility testing, performed according to Clinical and Laboratory Standards Institute (CLSI) methods ([46]), using panels prepared in-house. Meropenem was purchased from Sandoz, and all other antibiotics were from Sigma-Aldrich. Xeruborbactam was synthesized at Qpex Biopharma, San Diego, CA. Avibactam was purchased from eNovation Chemicals LLC, Bridgewater, NJ, USA; zidebactam was from MedKoo Biosciences, Inc., Morrisville, NC, and nacubactam was from Advanced ChemBlocks, Hayward, CA. Durlobactam was synthesized at Acme Bioscience, Palo Alto, CA, USA.

[7] = test system: K. pneumoniae strain KPM1026a
Method: Beta-lactamase-negative strains of E. coli (strain ECM5497), A. baumannii (strain AB1007), and K. pneumoniae (strain KPM1026a) were used in resistance development studies. […] Colonies were incubated for 24 h at 37°C before the frequency of resistance emergence was calculated as the ratio of the number of CFU grown on the xeruborbactam-containing plate over the number of CFU recorded for xeruborbactam-free plates. Single colonies from xeruborbactam-containing plates were grown twice on a nonselective medium before their antimicrobial-resistance levels were assessed. For K. pneumoniae KPM1026a, several independent cultures were used in resistance studies.

[8] = test system: strain AB1007 of A. baumannii; assay: Minimal bactericidal concentration (MBC), A. baumannii; type: cell-based; details: Acinetobacter baumannii
[9] = test system: Klebsiella pneumoniae strain KPM1026a; assay: Time-kill study; type: cell-based
[10] = test system: Proteus mirabilis; assay: Broth microdilution MIC (CLSI), Proteus mirabilis; type: cell-based; details: 23 isolates
Text: as §1

C[C@@H](O)[C@H]1C(=O)N2C(C(=O)O)=C(S[C@@H]3CN[C@H](C(=O)N(C)C)C3)[C@H](C)[C@H]12 [Meropenem]
IC50 [1]: 0.003 µM
IC50 [2]: < 0.08 µM
IC50 [3]: 3.4 µM
IC50 [4]: 4.4 µM

O=C(O)c1c(F)ccc2c1OB(O)[C@@H]1C[C@H]21 [Xeruborbactam]
IC50 [5]: 73 ± 10 µM
MIC50 [6]: 16 µg/mL (≈ 72.1 µM)
MIC90 [6]: 32 µg/mL (≈ 144 µM)
MIC range [6]: 8 to 64 µg/mL
frequency of resistance (FOR) ([7]; at 2× MIC): 2 × 10^−8
frequency of resistance (FOR) ([7]; at 4× MIC): < 3 × 10^−9
MBC [8]: 16 µg/mL (≈ 72.1 µM)
kinetics of killing [9]: time-dependent, concentration-independent bacterial killing
MIC50 [10]: 16 µg/mL (≈ 72.1 µM)
MIC90 [10]: 32 µg/mL (≈ 144 µM)
